The results in this text go back to paper PMC6820788, “Structural insights of human mitofusin-2 into mitochondrial fusion and CMT2A onset” (Nature Communications, 2019).

Changes are numbered by the printed parent chain. Names may count otherwise.

The target in series [1] is T1, MFN2IM (Homo sapiens, UniProt O95140, DEL401-705).
T1 construct: gene MFN2; deletion of residues 1-21 and 401-705 (G domain + HD1); E. coli; N-terminal His6 cut by PreScission
T1 sequence (O95140 22-400): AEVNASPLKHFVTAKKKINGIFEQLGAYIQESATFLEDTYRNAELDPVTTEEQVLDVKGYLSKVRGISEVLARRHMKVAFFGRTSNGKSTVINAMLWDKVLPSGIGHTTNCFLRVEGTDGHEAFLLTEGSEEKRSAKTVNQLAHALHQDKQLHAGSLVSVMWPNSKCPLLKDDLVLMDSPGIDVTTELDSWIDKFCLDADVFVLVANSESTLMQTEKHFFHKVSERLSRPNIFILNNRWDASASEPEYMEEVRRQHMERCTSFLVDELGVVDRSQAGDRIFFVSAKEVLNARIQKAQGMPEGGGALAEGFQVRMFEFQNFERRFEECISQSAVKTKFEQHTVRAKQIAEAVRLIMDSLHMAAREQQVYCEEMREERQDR
T1 sequence (O95140 706-757): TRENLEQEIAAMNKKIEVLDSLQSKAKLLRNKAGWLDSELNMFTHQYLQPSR
The series can be described thus: ITC. Format: binding.

The target in series [2] is T2, MFN1IM (Homo sapiens, UniProt Q8IWA4, DEL365-694).
T2 construct: gene MFN1; internally truncated (residues 365-694 removed, G domain + HD1); E. coli; His6 cut by PreScission
T2 sequence (Q8IWA4 1-364): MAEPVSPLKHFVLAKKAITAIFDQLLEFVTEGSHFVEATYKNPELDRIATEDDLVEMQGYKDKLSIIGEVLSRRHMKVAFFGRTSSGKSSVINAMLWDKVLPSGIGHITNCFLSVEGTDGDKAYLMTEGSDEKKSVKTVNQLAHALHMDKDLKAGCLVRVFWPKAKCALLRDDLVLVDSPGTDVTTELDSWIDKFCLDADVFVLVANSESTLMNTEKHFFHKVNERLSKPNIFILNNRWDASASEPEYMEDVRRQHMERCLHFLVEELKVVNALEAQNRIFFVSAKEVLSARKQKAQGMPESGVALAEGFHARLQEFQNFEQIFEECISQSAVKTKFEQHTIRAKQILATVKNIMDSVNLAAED
T2 sequence (Q8IWA4 695-741): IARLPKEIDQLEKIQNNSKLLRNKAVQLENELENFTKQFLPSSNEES
The series can be described thus: ITC. It counts as binding.

In series [3] the target is T3, MFN1IM (Homo sapiens, UniProt Q8IWA4, I108T/DEL365-694).
T3 construct: gene MFN1; internally truncated (residues 365-694 removed, G domain + HD1); E. coli; His6 cut by PreScission
T3 sequence (Q8IWA4 1-364 I108T): T2 sequence (Q8IWA4 1-364) with I108T
T3 sequence (Q8IWA4 695-741): T2 sequence (Q8IWA4 695-741)
As to the kind of experiment: stopped-flow fluorescence, displacement by unlabeled GDP. It counts as binding. To be noted: labelled compound; pH 7.5, 150 mM KCl, 5 mM MgCl2.

The target in series [4] is T4, MFN2IM (Homo sapiens, UniProt O95140, T129I/DEL401-705).
T4 construct: gene MFN2; deletion of residues 1-21 and 401-705 (G domain + HD1); E. coli; N-terminal His6 cut by PreScission
T4 sequence (O95140 22-400 T129I): T1 sequence (O95140 22-400) with T108I
T4 sequence (O95140 706-757): T1 sequence (O95140 706-757)
The description is as above. Format: binding. To be noted: labelled compound; pH 7.5, 150 mM KCl, 5 mM MgCl2.

The target of series [5] is T5, mouse MFN2IM (mm) (Mus musculus, UniProt Q80U63).
T5 construct: gene Mfn2; internally truncated counterpart of human MFN2IM
T5 sequence (Q80U63 22-400 limits assumed): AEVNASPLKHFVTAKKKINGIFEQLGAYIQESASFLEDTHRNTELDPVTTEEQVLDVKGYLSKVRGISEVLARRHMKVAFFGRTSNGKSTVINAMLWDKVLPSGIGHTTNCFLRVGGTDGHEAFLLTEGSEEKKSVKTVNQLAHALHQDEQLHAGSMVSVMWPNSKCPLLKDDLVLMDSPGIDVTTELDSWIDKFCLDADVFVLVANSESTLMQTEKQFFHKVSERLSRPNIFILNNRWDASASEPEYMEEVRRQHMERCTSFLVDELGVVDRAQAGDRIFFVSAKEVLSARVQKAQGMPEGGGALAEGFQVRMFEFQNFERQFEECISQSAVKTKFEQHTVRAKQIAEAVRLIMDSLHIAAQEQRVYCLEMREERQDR
T5 sequence (Q80U63 706-757 limits assumed): T1 sequence (O95140 706-757) with E3D, I16V, V18A, K25R
The series can be described thus: GTP hydrolysis, HPLC. Format: biochemical. To be noted: 37 °C, pH 7.5, 150 mM KCl, 5 mM MgCl2.

In series [6] the target is T6, mouse MFN1IM (mm) (Mus musculus, UniProt Q811U4).
T6 construct: gene Mfn1; internally truncated counterpart of human MFN1IM
T6 sequence (Q811U4 1-364 limits assumed): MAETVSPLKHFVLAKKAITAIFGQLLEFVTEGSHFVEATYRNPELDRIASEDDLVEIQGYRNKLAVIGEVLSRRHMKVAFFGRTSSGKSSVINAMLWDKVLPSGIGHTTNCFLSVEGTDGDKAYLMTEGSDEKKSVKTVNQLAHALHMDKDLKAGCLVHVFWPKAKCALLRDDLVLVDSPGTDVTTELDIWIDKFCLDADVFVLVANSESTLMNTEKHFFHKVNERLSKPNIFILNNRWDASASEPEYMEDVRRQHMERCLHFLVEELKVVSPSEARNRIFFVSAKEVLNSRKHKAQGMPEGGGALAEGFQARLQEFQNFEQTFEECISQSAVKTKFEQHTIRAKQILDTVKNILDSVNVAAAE
T6 sequence (Q811U4 695-741 limits assumed): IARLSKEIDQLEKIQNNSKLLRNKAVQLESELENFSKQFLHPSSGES
As to the kind of experiment: GTP hydrolysis, HPLC. Format: biochemical. The note with it: 37 °C, pH 7.5, 150 mM KCl, 5 mM MgCl2.

The target of series [7] is T1, MFN2IM. The series can be described thus: stopped-flow fluorescence, nucleotide exchange. To be noted: labelled compound; protein preincubated with GDP; pH 7.5, 150 mM KCl, 5 mM MgCl2. It counts as binding.
In series [8] the target is T2, MFN1IM. The series can be described thus: stopped-flow fluorescence, nucleotide exchange. Format: binding. To be noted: labelled compound; protein preincubated with GDP; pH 7.5, 150 mM KCl, 5 mM MgCl2.
Series [9] deals with the molecule itself. As to the kind of experiment: SEC-RALS; analytical gel filtration (Superdex 200 10/300) coupled to right-angle light scattering; 50 μM protein incubated with 500 μM GTP or GDP∙BeF3− for 2 h at room temperature; 20 mM HEPES pH 7.5, 150 mM KCl, 5 mM MgCl2, 1 mM DTT. (Size exclusion chromatography separates by hydrodynamic size, large species first.)
Series [10] has as its target T7, MBP-fused MFN2IM (human, UniProt O95140 22-757, deletions of residues 1–21 and 401–705).
T7 construct: human mitofusin-2 (MFN2) with residues 1-21 and 401-705 deleted (MFN2IM); also called MBP-tagged MFN2IM; wild-type MFN2IM (native PAGE)
T7 sequence (looked up): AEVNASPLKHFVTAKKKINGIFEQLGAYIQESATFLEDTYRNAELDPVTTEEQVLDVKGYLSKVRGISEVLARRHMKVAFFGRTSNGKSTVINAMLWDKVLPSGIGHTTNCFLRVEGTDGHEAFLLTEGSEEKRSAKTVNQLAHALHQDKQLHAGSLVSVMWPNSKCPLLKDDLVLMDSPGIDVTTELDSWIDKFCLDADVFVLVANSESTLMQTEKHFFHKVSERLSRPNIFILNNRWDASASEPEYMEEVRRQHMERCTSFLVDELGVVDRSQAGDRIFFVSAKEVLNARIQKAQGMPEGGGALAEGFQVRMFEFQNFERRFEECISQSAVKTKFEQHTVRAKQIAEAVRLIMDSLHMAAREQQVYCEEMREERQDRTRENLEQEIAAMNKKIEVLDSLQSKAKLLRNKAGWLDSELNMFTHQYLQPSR
The series can be described thus: native gel or EMSA; blue native PAGE at 4 °C; MBP-tagged MFN1IM/MFN2IM mixed with 10 μM partner and tenfold GDP∙BeF3−, 2 h at room temperature; Coomassie stain. To be noted: both partners purified. In general terms: A gel shift assay detects complexes by their altered migration in electrophoresis.

One may read the Kd as the constant that tells how readily two partners part at equilibrium. A higher Kd goes with lower affinity. Regarding `Nc1nc2c(ncn2[C@@H]2O[C@H](COP(=O)(O)OP(=O)(O)O)[C@@H](O)[C@H]2O)c(=O)[nH]1` [GDP], the Kd came to 14.4 ± 0.63 µM in series [1] and 217 ± 23.8 µM in [2].

As for `CNc1ccccc1C(=O)O[C@H]1[C@@H](O)[C@H](n2cnc3c(=O)[nH]c(N)nc32)O[C@@H]1COP(=O)(O)OP(=O)(O)O` [mant-GDP], the GDP off-rate entry in series [3] was “GDP off-rates of MFN2IM(T129I) and MFN1IM(I108T)”; in series [4] it was “GDP off-rates of MFN2IM(T129I) and MFN1IM(I108T)”.

Consider `Nc1nc2c(ncn2[C@@H]2O[C@H](COP(=O)(O)OP(=O)(O)OP(=O)(O)O)[C@@H](O)[C@H]2O)c(=O)[nH]1` [GTP], for which the GTP turnover rate result was “Mouse MFN1IM and MFN2IM showed weak GTPase hydrolysis” in [5]; “Mouse MFN1IM and MFN2IM showed weak GTPase hydrolysis” in series [6].

For `Nc1nc2c(ncn2[C@@H]2O[C@H](COP(=O)(O)OP(=O)(O)OP(O)(O)=S)[C@@H](O)[C@H]2O)c(=O)[nH]1` [GTPγS], the figures for the Kd in series [1] and in series [2] were 3.3 ± 0.52 µM and 83 ± 5.34 µM, respectively.

`CNc1ccccc1C(=O)O[C@H]1[C@@H](O)[C@H](n2cnc3c(=O)[nH]c(N)nc32)O[C@@H]1COP(=O)(O)OP(=O)(O)OP(=O)(O)O` [mant-GTP]: the “stopped-flow fluorescence, nucleotide exchange” value in series [7] was “MFN2IM bound more mant-GTP over time due to a higher affinity to GTP”; in series [8], “G domain dimerization greatly reduced the mant-GTP reload rate of both MFN2IM and MFN1IM”.

B1: MFN2IM (modified human MFN2 construct with deletions of residues 1–21 and 401–705) (domain or fragment, UniProt O95140 22-757, looked up)
chain: T7 sequence (looked up)
notes: human mitofusin-2 (MFN2) with residues 1-21 and 401-705 deleted (MFN2IM); Theoretical molecular mass 52.6 kDa; also called truncated human MFN2; wild-type MFN2IM; source: E. coli Rosetta (DE3), purified (Ni-NTA, His6-tag removed with PreScission protease, second Ni-NTA, gel filtration); not shown: His6, N-terminal, cleaved
A word on the stoichiometry N: it is the number of molecules, sites or subunits per partner or assembly. With B1, the “stoichiometry N” value in [9] was 2.

B2: MFN2IM R364P (CMT2A-related mutant) (domain or fragment, human, UniProt O95140 22-757, looked up)
chain: T7 sequence (looked up) with R343P
notes: human mitofusin-2 (MFN2) with residues 1-21 and 401-705 deleted (MFN2IM), CMT2A-related point mutant; source: E. coli Rosetta (DE3), purified; not shown: His6, N-terminal, cleaved
For B2, in series [9], the binding result is given as “binds”.

B3: MFN2IM P251L (CMT2A-related mutant) (domain or fragment, human, UniProt O95140 22-757, looked up)
chain: T7 sequence (looked up) with P230L
notes: as for B2
Consider B3, for which the binding result in [9] is reported as “binds”.

B4: MFN2IM R94Q (CMT2A-related mutant) (domain or fragment, human, UniProt O95140 22-757, looked up)
chain: T7 sequence (looked up) with R73Q
notes: as for B2
Regarding B4, in series [9], the binding result was “binds”.

B5: MFN2IM R364W (CMT2A-related mutant) (domain or fragment, human, UniProt O95140 22-757, looked up)
chain: T7 sequence (looked up) with R343W
notes: as for B2
Regarding B5, the binding result in series [9] is listed as “binds”.

B6: MFN2IM L248V (CMT2A-related mutant) (domain or fragment, human, UniProt O95140 22-757, looked up)
chain: T7 sequence (looked up) with L227V
notes: as for B2
As for B6, the binding result in series [9] is “binds”.

B7: MFN2IM R94W (CMT2A-related mutant) (domain or fragment, human, UniProt O95140 22-757, looked up)
chain: T7 sequence (looked up) with R73W
notes: as for B2
Consider B7, for which the binding result in [10] is listed as “binds”.
